Results published in patent US9314026B2, “Heterocyclylpyri(mi)dinylpyrazole” (Bayer Intellectual Property GmbH, priority 2011, dated 2016).
Read-outs that look alike come from different tables or passages of the source.

Assay: determination of the log P values by HPLC on a reverse phase column (C18), EEC-Directive 79/831 Annex V.A8
Assay type: physicochemical
Method: Method A Note on the determination of the log P values and mass detection: The stated log P values were determined in accordance with EEC-Directive 79/831 Annex V.A8 by HPLC (High Performance Liquid Chromatography) on a reverse phase column (C18). […] The mass detection was effected with an […] system. Method B Note on the determination of the log P values and mass detection: The stated log P values were determined in accordance with EEC-Directive 79/831 Annex V.A8 by HPLC (High Performance Liquid Chromatography) on a reverse phase column (C18). […] The mass detection was effected with the Micronass ZQ2000 mass detector from Waters. Method C Note on the determination of the log P values and mass detection: The stated log P values were determined in accordance with EEC-Directive 79/831 Annex V.A8 by UPLC (Ultra Performance Liquid Chromatography) on a reverse phase column (C18). […] The mass detection was effected with the LCT Premier or SQD mass detector from Waters.

| Compound | chromatographic logP (pH 2.7) | chromatographic logP (pH 2.3) | other results |
| --- | --- | --- | --- |
| O=C(C1CC1)N(C(=O)C1CC1)c1cc(-c2c(-c3ccc(F)cc3)nn3c2CCCC3)ccn1 [Example 14, N-(cyclopropylcarbonyl)-N-{4-[2-(4-fluorophenyl)-4,5,6,7-tetrahydropyrazolo[1,5-a]pyridin-3-yl]pyridin-2-yl}cyclopropanecarboxamide] | 3.28 |  | LogPA (Method A (HPLC, C18, acetonitrile/water with formic acid), compounds of the type [I]): 3.28 |
| CCC(C)C(=O)Nc1cc(-c2c(-c3ccc(F)cc3)nn3c2CCC3)ccn1 (stereo not drawn) [[XI-17], N-{4-[2-(4-fluorophenyl)-5,6-dihydro-4H-pyrrolo[1,2-b]pyrazol-3-yl]pyridin-2-yl}-2-methylbutanamide] |  | 2.23 |  |
| Fc1ccc(-c2cc3n(n2)CCC3)cc1Cl [[VI-3], 2-(3-chloro-4-fluorophenyl)-5,6-dihydro-4H-pyrrolo[1,2-b]pyrazole] | 3.07 | 3.07 |  |
| Fc1ccc(-c2nn3c(c2Br)CCC3)cc1 [[IV-1], 3-bromo-2-(4-fluorophenyl)-5,6-dihydro-4H-pyrrolo[1,2-b]pyrazole] |  | 3.21 | chromatographic logP (pH 7): 3.21 |
| CC1(C)OB(c2c(-c3ccc(F)cc3)nn3c2CCC3)OC1(C)C [[III-1], 2-(4-fluorophenyl)-3-(4,4,5,5-tetramethyl-1,3,2-dioxaborolan-2-yl)-5,6-dihydro-4H-pyrrolo[1,2-b]pyrazole] | 3.97 |  |  |
| Nc1cc(-c2c(-c3ccc(F)c(F)c3)nn3c2CCC3)ccn1 [[II-3], 4-[2-(3,4-difluorophenyl)-5,6-dihydro-4H-pyrrolo[1,2-b]pyrazol-3-yl]pyridin-2-amine] | 1.08 | 1.08 |  |
| CCC(=O)Nc1cc(-c2c(-c3csc(Cl)c3)nn3c2CCC3)ccn1 [[XI-12], N-{4-[2-(5-chloro-3-thienyl)-5,6-dihydro-4H-pyrrolo[1,2-b]pyrazol-3-yl]pyridin-2-yl}propanamide] |  | 1.95 |  |
| Fc1ccc(-c2nn3c(c2Br)CCC3)cc1Cl [[IV-3], 3-bromo-2-(3-chloro-4-fluorophenyl)-5,6-dihydro-4H-pyrrolo[1,2-b]pyrazole] |  | 4.01 | chromatographic logP (pH 2.5): 4.01 |
| OCCCc1cc(-c2ccc(F)cc2)n[nH]1 [[XIV-1], 3-[3-(4-fluorophenyl)-1H-pyrazol-5-yl]propan-1-ol] | 1.51 | 1.5 |  |
| CC1CCn2nc(-c3ccccc3)c(I)c21 (stereo not drawn) [[IV-4], 3-iodo-4-methyl-2-phenyl-5,6-dihydro-4H-pyrrolo[1,2-b]pyrazole] |  | 3.56 | chromatographic logP (pH 2.5): 3.56 |
| OCCCCc1cc(-c2ccc(F)cc2)n[nH]1 [[XIV-4], 4-[3-(4-fluorophenyl)-1H-pyrazol-5-yl]butan-1-ol] | 1.72 | 1.72 |  |
| CC1CCn2nc(-c3ccccc3)c(-c3ccnc(NC(=O)CC4CC4)c3)c21 (stereo not drawn) [[XI-11], 2-cyclopropyl-N-[4-(4-methyl-2-phenyl-5,6-dihydro-4H-pyrrolo[1,2-b]pyrazol-3-yl)pyridin-2-yl]acetamide] |  | 2.32 |  |
| CS(=O)(=O)OCCCc1cc(-c2ccc(F)cc2)n[nH]1 [[VII-1], 3-[3-(4-fluorophenyl)-1H-pyrazol-5-yl]propyl methanesulfonate] | 2 |  |  |
| CC(=O)Nc1cc(-c2c(-c3ccc(F)cc3)nn3c2CC(C)C3)ccn1 (stereo not drawn) [[XI-3], N-{4-[2-(4-fluorophenyl)-5-methyl-5,6-dihydro-4H-pyrrolo[1,2-b]pyrazol-3-yl]pyridin-2-yl}acetamide] |  | 1.64 |  |
| 3-iodo-5-methyl-2-phenyl-5,6-dihydro-4H-pyrrolo[1,2-b]pyrazole [[IV-7]] |  |  | LogP (pH 2.3) (pH 2.3, compounds of the type [IV]): 3.74; log P (pH 2.5) (pH 2.5, preparation examples in the text): 3.74 |
| Clc1cc(-c2nn3c(c2I)CCCC3)cs1 [[IV-6], 2-(5-chloro-3-thienyl)-3-iodo-4,5,6,7-tetrahydropyrazolo[1,5-a]pyridine] |  | 4.49 | chromatographic logP (pH 2.5): 4.49 |
| CC(C)C(=O)Nc1cc(-c2c(-c3csc(Cl)c3)nn3c2CCC3)ccn1 [[XI-21], N-{4-[2-(5-chloro-3-thienyl)-5,6-dihydro-4H-pyrrolo[1,2-b]pyrazol-3-yl]pyridin-2-yl}-2-methylpropanamide] |  | 2.24 |  |
| CCC(=O)N(C(=O)CC)c1cc(-c2c(-c3ccc(F)cc3)nn3c2CCC3C)ccn1 (stereo not drawn) [Example 16, N-{4-[2-(4-fluorophenyl)-6-methyl-5,6-dihydro-4H-pyrrolo[1,2-b]pyrazol-3-yl]pyridin-2-yl}-N-propionylpropanamide] |  |  | chromatographic logP: 3.21 |
| CCC(=O)N(C(=O)CC)c1cc(-c2c(-c3ccc(F)cc3)nn3c2CCCC3)ccn1 [Example 18, N-{4-[2-(4-fluorophenyl)-4,5,6,7-tetrahydropyrazolo[1,5-a]pyridin-3-yl]pyridin-2-yl}-N-propionylpropanamide] |  |  | chromatographic logP: 3.18 |

| Compound | chromatographic logP (pH 2.7) | chromatographic logP (pH 2.3) | other results |
| --- | --- | --- | --- |
| CS(=O)(=O)OCCCc1cc(-c2ccc(F)c(Cl)c2)n[nH]1 [[VII-2], 3-[3-(3-chloro-4-fluorophenyl)-1H-pyrazol-5-yl]propyl methanesulfonate] | 2.42 |  |  |
| COCC(=O)Nc1cc(-c2c(-c3ccc(F)cc3)nn3c2CC(C)C3)ccn1 (stereo not drawn) [[XI-18], N-{4-[2-(4-fluorophenyl)-5-methyl-5,6-dihydro-4H-pyrrolo[1,2-b]pyrazol-3-yl]pyridin-2-yl}-2-methoxyacetamide] |  | 2.3 |  |
| CC(C)CC(=O)Nc1cc(-c2c(-c3ccc(F)cc3)nn3c2CCC3)ccn1 [[XI-15], N-{4-[2-(4-fluorophenyl)-5,6-dihydro-4H-pyrrolo[1,2-b]pyrazol-3-yl]pyridin-2-yl}-3-methylbutanamide] |  | 2.2 |  |
| COCC(=O)Nc1cc(-c2c(-c3ccccc3)nn3c2C(C)CC3)ccn1 (stereo not drawn) [[XI-5], 2-methoxy-N-[4-(4-methyl-2-phenyl-5,6-dihydro-4H-pyrrolo[1,2-b]pyrazol-3-yl)pyridin-2-yl]acetamide] |  | 2.22 |  |
| O=C(Nc1cc(-c2c(-c3csc(Cl)c3)nn3c2CCC3)ccn1)C1CC1 [[XI-20], N-{4-[2-(5-chloro-3-thienyl)-5,6-dihydro-4H-pyrrolo[1,2-b]pyrazol-3-yl]pyridin-2-yl}cyclopropanecarboxamide] |  | 2.02 |  |
| Fc1ccc(-c2nn3c(c2Br)CCC3)cc1F [[IV-2], 3-bromo-2-(3,4-difluorophenyl)-5,6-dihydro-4H-pyrrolo[1,2-b]pyrazole] |  | 3.54 | chromatographic logP (pH 2.5): 3.54 |
| O=C(Nc1cc(-c2c(-c3ccc(F)cc3)nn3c2CCC3)ccn1)C1CCOCC1 [[XI-27], N-{4-[2-(4-fluorophenyl)-5,6-dihydro-4H-pyrrolo[1,2-b]pyrazol-3-yl]pyridin-2-yl}tetrahydro-2H-pyran-4-carboxamide] |  | 1.77 |  |
| CC1Cc2c(-c3ccnc(NC(=O)CC4CC4)c3)c(-c3ccc(F)cc3)nn2C1 (stereo not drawn) [[XI-22], 2-cyclopropyl-N-{4-[2-(4-fluorophenyl)-5-methyl-5,6-dihydro-4H-pyrrolo[1,2-b]pyrazol-3-yl]pyridin-2-yl}acetamide] |  | 2.36 |  |
| CC(CCO)c1cc(-c2ccc(F)cc2)n[nH]1 (stereo not drawn) [[XIV-5], 3-[3-(4-fluorophenyl)-1H-pyrazol-5-yl]butan-1-ol] | 1.74 | 1.74 |  |
| CCC(=O)Nc1cc(-c2c(-c3ccc(F)cc3)nn3c2CC(C)C3)ccn1 (stereo not drawn) [[XI-7], N-{4-[2-(4-fluorophenyl)-5-methyl-5,6-dihydro-4H-pyrrolo[1,2-b]pyrazol-3-yl]pyridin-2-yl}propanamide] |  | 1.91 |  |
| CC1(C)OB(c2c(-c3ccc(F)c(Cl)c3)nn3c2CCC3)OC1(C)C [[III-3], 2-(3-chloro-4-fluorophenyl)-3-(4,4,5,5-tetramethyl-1,3,2-dioxaborolan-2-yl)-5,6-dihydro-4H-pyrrolo[1,2-b]pyrazole] | 4.73 |  |  |
| O=C(Nc1cc(-c2c(-c3ccc(F)cc3)nn3c2CCC3)ccn1)C1CCC1 [[XI-14], N-{4-[2-(4-fluorophenyl)-5,6-dihydro-4H-pyrrolo[1,2-b]pyrazol-3-yl]pyridin-2-yl}cyclobutanecarboxamide] |  | 2.08 |  |
| CC(=O)Nc1cc(-c2c(-c3ccccc3)nn3c2C(C)CC3)ccn1 (stereo not drawn) [[XI-1], N-[4-(4-methyl-2-phenyl-5,6-dihydro-4H-pyrrolo[1,2-b]pyrazol-3-yl)pyridin-2-yl]acetamide] | 1.76 | 1.6 |  |
| CCC(=O)Nc1cc(-c2c(-c3ccc(F)cc3)nn3c2C(OC)CC3)ccn1 (stereo not drawn) [[XI-19], N-{4-[2-(4-fluorophenyl)-4-methoxy-5,6-dihydro-4H-pyrrolo[1,2-b]pyrazol-3-yl]pyridin-2-yl}propanamide] |  | 1.72 |  |
| CCC(=O)Nc1cc(-c2c(-c3ccc(F)c(F)c3)nn3c2CCC3)ccn1 [[XI-10], N-{4-[2-(3,4-difluorophenyl)-5,6-dihydro-4H-pyrrolo[1,2-b]pyrazol-3-yl]pyridin-2-yl}propanamide] |  | 1.93 |  |
| OCCCc1cc(-c2ccc(F)c(Cl)c2)n[nH]1 [[XIV-3], 3-[3-(3-chloro-4-fluorophenyl)-1H-pyrazol-5-yl]propan-1-ol] | 1.96 | 1.97 |  |
| O=C(CCc1ccccc1)Nc1cc(-c2c(-c3ccc(F)cc3)nn3c2CCC3)ccn1 [[XI-28], N-{4-[2-(4-fluorophenyl)-5,6-dihydro-4H-pyrrolo[1,2-b]pyrazol-3-yl]pyridin-2-yl}-3-phenylpropanamide] |  | 2.62 |  |
| CCC(=O)N(C(=O)C1CC1)c1cc(-c2c(-c3ccc(F)cc3)nn3c2CCCC3)ccn1 [Example 17, N-{4-[2-(4-fluorophenyl)-4,5,6,7-tetrahydropyrazolo[1,5-a]pyridin-3-yl]pyridin-2-yl}-N-propionylcyclopropanecarboxamide] |  |  | chromatographic logP: 3.22 |
